Test results taken from US20230219952A1, “PROCESS FOR PREPARING METHYL {4,6-DIAMINO-2-[5-FLUORO-1-(2-FLUOROBENZYL)-1H-PYRAZOLO[3,4-B]PYRIDIN-3 -YL]PYRIMIDIN-5-YL} CARBAMATE” (ADVERIO PHARMA GMBH, priority 2020, published 2023).
Where two headings read alike, the source gives them in different places.

What was measured:
Type in all cases: physicochemical
[1] = Sieving of active compound product on an industrial sieving machine (sieveability); conditions: for Time to sieve 65 kg of active compound product: Frewitt Coniwitt TC200, sieve aperture diameter 3 mm; for Sieve throughput of active compound product: industrial scale, Frewitt Oscillowitt MG-800 (2.5 to 4.0 mm) for WO 2013/076168 material, Frewitt Coniwitt TC200 (3 mm) for material of the invention
Method: Improved sieveability is measurable for example via improved feeding into the industrial sieving machine as a result of improved flowability of the active compound product and via fewer sieve blockages, for example via the throughput of active compound product per unit time (Example 17).
In the context of the present invention the sieving of the active compound product is carried out for example using a Frewitt Coniwitt TC200 sieving machine (sieve aperture diameter 3 mm) or a Frewitt Oscillowitt MG-800 sieving machine (sieve aperture diameter 2.5 mm to 4.0 mm).
Improved sieveability: The material from the process of the invention is easy to feed into the sieving machine on account of its good flowability. Sieving results in markedly fewer sieve blockages than for material from the process according to route 1. For example on an industrial scale 65 kg of the material from the process of the invention were sievable in <5 min in a Frewitt Coniwitt TC200 sieving machine (sieve aperture diameter 3 mm). This corresponds to >13 kg/min. For comparison sieving material from route 1 via a Frewitt Oscillowitt MG-800 sieving machine (sieve aperture diameter 2.5 mm to 4.0 mm) only achieved throughputs of <10 kg/h. This corresponds to <0.17 kg/min (Example 17). Observed here is a very large difference of a factor of nearly 100 in the sieve throughput of the active compound product of route 1 compared to the active compound product of the invention. This very large difference in sieve throughput results predominantly from the material characteristics of the active compound product and cannot be explained by the different machine types.
Improved sieve throughput. Industrial scale.

[2] = Isolation in an inverting filter centrifuge, industrial scale (isolability)
Excerpt: In the context of the present invention and as outlined in WO2020/126983, improved isolability of the active compound product, dischargeability of the active compound product after isolation and drying and also conveyability, sieveability and micronizability of the active compound product of the compound of the formula (I) are to be understood as meaning the following, for example: Improved isolability is measurable on an industrial scale for example via a higher area-specific throughput in an inverting filter centrifuge (Example 16). In the context of the present invention the isolation of the active compound product is carried out using for example a filter centrifuge, for example an inverting filter centrifuge. […] This manifests for example in a higher area-specific throughput in the inverting filter centrifuge. On an industrial scale isolation of the material from the process of WO 2013/076168 achieved an average area-specific throughput of 1.6 kg/m^2 h. The average area-specific throughput of the material from the process of the invention was 3.0 kg/m^2 h and thus nearly double the above (Example 16). Higher area-specific throughput in an inverting filter centrifuge. Industrial scale.

[3] = Dischargeability from the inverting filter centrifuge, industrial scale; conditions: listed as material from the process of the invention
Excerpt: Improved dischargeability from the isolation apparatus: The process according to the process of the present invention prevents the formation of a felt-like filter cake having high tear strength. Both after isolation in the pressure filter and after isolation in the filter centrifugation the filter cake is soft and moldable. This prevents blockage of the discharge path. For example on an industrial scale a blockage of the discharge path from the inverting filter centrifuge after isolation of the material from the process of WO 2013/076168 was avoidable only by reducing the filter cake thickness to 8 mm to 9 mm. By contrast in the isolation of the material from the process of the invention an average filter cake height of 25 mm was realized without any blocking of the discharge path being observed.

[4] = listed as material from the process of the invention

Row | SMILES | Time to sieve 65 kg of active compound product [1] | Time to sieve 65 kg of active compound product [1, 4] | Sieve throughput of active compound product [1] | Sieve throughput of active compound product [1, 4] | Average area-specific throughput [2] | Average area-specific throughput [2, 4] | Filter cake thickness at which the discharge path does not become blocked [3] | Sieve throughput ([1]; Frewitt Oscillowitt MG-800, sieve aperture diameter 2.5 mm to 4.0 mm) | Amount of active compound product sieved in 1 h ([1]; Frewitt Oscillowitt MG-800, sieve aperture diameter 2.5 to 4.0 mm, in 1 h) | Sieve throughput of active compound product ([1]; listed as material from route 1) | Average area-specific throughput ([2]; listed as material from the process of WO 2013/076168)
1 | COC(=O)Nc1c(N)nc(-c2nn(Cc3ccccc3F)c3ncc(F)cc23)nc1N [Process of the invention, methyl {4,6-diamino-2-[5-fluoro-1-(2-fluorobenzyl)-1H-pyrazolo[3,4-b]pyridin-3-yl]pyrimidin-5-yl}carbamate] | product in <5 min | < 5 min | i.e. >13 kg/min | > 13 kg/min | 3.0 kg/m^2h | 3.0 kg/m^2h | 25 mm | – | – | – | –
2 | COC(=O)Nc1c(N)nc(-c2nn(Cc3ccccc3F)c3ncc(F)cc23)nc1N [Process of WO 2013/076168, methyl {4,6-diamino-2-[5-fluoro-1-(2-fluorobenzyl)-1H-pyrazolo[3,4-b]pyridin-3-yl]pyrimidin-5-yl}carbamate, reference compound] | – | – | i.e. <0.17 kg/min | – | 1.6 kg/m^2h | – | – | < 10 kg/h | <10 kg of active compound | < 0.17 kg/min | 1.6 kg/m^2h
